Reference: patent US6818741B2, “Alpha-fetoprotein peptides and uses therof” (CLF Medical Technology Acceleration Program, Inc., priority 2000, dated 2004)
Entries after “also recorded” stand apart in the source; their conditions may differ. Square brackets hold non-standard residues; d marks the D form. Ends that are not written are not given here. Peptide text beside a SMILES is read from it. Hyp = O=C(O)[C@@H]1C[C@@H](O)CN1

Key:
[1] = system: E2-stimulated growth of immature mouse uterus; assay: Immature mouse uterine growth assay (anti-estrotrophic activity); format: in vivo; details: for dose of maximal (optimal) inhibition of estrogen-stimulated growth of mouse uterus: i.p., dose-response; for effect of 4 M urea treatment on biological activity of stored peptide: stored (aged) peptide, brief treatment with 4 M urea; for inhibition of the uterotrophic effect of estradiol (normalized uterine weight, E2+ Pep vs E2): Pep i.p. one hour before E2, uteri weighed 22 hours later; for biological activity of gel-filtration fraction: aged peptide, 1 μg i.p.
Excerpt: (§1) Twenty-two hours later, uteri were dissected and weighed. […] (FIG. 1a) Peptide dose-response.
(§2) Immature Mouse Uterine Growth Assay.

[2] = Shelf-life (storage) studies of lyophilized peptide, read out in the immature mouse uterine growth assay; format: physicochemical; details: for time in storage after which anti-estrotrophic activity was lost (diminished to insignificant levels): lyophilized, −20° C.; for shelf-life: storage in the lyophilized state, tested in immature mouse uterine growth assay
Excerpt: as §1, §2

[3] = system: MCF-7 human breast cancer xenografts; assay: Human breast cancer xenograft assay, MCF-7; format: in vivo; details: E2 implant; peptide 1 μg i.p. twice a day; tamoxifen 50 μg i.p. once a day; 30-day observation; vs E2 alone
Description: (§3) Tumors were implanted as described in Materials and Methods. […] There was a minimum of 5 mice per group. (FIG. 9a) MCF-7 tumors.
Human Breast Cancer Xenograft Assay. A bioassay for anti-breast cancer activity was performed according to Bennett et al. (23;24). Confluent MCF-7 human breast cancer cells were trypsinized into suspension and pelleted by centrifugation at 200× g. The pellet was then solidified into a fibrin clot by exposing it to 10 μl of fibrinogen (50 mg/ml) and 10 μl of thrombin (50 units/ml). The solid mass of MCF-7 cells was then cut into pieces 1.5 mm in diameter. A tumor segment of ˜1.5 mm in diameter was implanted under the kidney capsule of an immunodeficient ICR-SCID male mouse (Taconic Farms) that weighed about 25 g. Estrogen supplementation was accomplished by s.c. implantation of a silastic tubing capsule containing solid E2 inserted on the day of tumor implantation. Peptide was injected i.p. every twelve hours at a dose of 1 μg per mouse. Tumor growth was monitored during survival laparotomy at 10-day intervals by measurement of the diameters of the short (d) and long axes (D) of each tumor, using a dissecting microscope equipped with an ocular micrometer. Tumor volumes were calculated using the formula (π/6)(d)^2D, assuming the tumor shape to be an ellipsoid of revolution around its long axis (D). There were five to seven replicate mice included in each treatment group. Mean tumor volume±standard error in each group was calculated for display of growth curves. Significance of differences between groups were tested using the one-sided Wilcoxon Sum of Ranks Test.

[4] = system: MCF-7/Tam human breast cancer xenografts; assay: Human breast cancer xenograft assay, tamoxifen-resistant MCF-7 subline; format: in vivo; details: E2 implant; peptide 1 μg i.p. twice a day; tamoxifen 50 μg i.p. once a day; day 30; vs E2 alone
Description: as §3
Cell Lines. T47D and MDA-MB-231 human breast cancer cell lines were purchased from the American Type Culture Collection (Manassas, Va.). Growth medium for T47D cells consisted of RPMI 1640 (Life Technologies, Germantown, Md.) supplemented with 10% fetal bovine serum (Life Technologies) and 8 μg/ml bovine insulin (Sigma, St. Louis, Mo.). Growth medium for MDA-MB-231 consisted of Dulbecco's Modified Eagle Medium (Life Technologies) supplemented with L-glutamine (2 mM), non-essential amino acids (1%, Life Technologies) and bovine insulin (1 μg/ml). The MCF-7 cell line was obtained from Dr. Alberto C. Baldi, Institute of Experimental Biology and Medicine, Buenos Aires, Argentina, and was maintained as previously describedby Gierthy et al. (1991).
Human Breast Cancer Xenograft Assay. […] Tumor growth was monitored during survival laparotomy at 10-day intervals by measurement of the diameters of the short (d) and long axes (D) of each tumor, using a dissecting microscope equipped with an ocular micrometer. Tumor volumes were calculated using the formula (π/6)(d)^2D, assuming the tumor shape to be an ellipsoid of revolution around its long axis (D). […] Mean tumor volume±standard error in each group was calculated for display of growth curves. […]

[5] = system: T47D human breast cancer xenografts; assay: Human breast cancer xenograft assay, T47D; format: in vivo; details: E2 supplementation; 30-day observation; vs E2 alone
[6] = system: estrogen-receptor-negative MDA-MB-231 human breast cancer xenografts; assay: Human breast cancer xenograft assay, MDA-MB-231; format: in vivo; details: ER− tumor, 30 day observation
[7] = tamoxifen users; cited from earlier work
[8] = Toxicity to mice in the uterine growth assay; format: in vivo; details: even at an effective dose of 1 mg/mouse
Excerpt: as §2

[9] = biological target: T1, estrogen receptor (Oryctolagus cuniculus, UniProt G1SML6); assay: Assessment of estrogen receptor antagonism ([3H]E2 binding, uterine cytosol); parameters: species or system rabbit; details: for interference with E2 binding to its receptor: peptide concentration range 10^−10 M to 10^−5 M
T1 sequence (G1SML6 1-598): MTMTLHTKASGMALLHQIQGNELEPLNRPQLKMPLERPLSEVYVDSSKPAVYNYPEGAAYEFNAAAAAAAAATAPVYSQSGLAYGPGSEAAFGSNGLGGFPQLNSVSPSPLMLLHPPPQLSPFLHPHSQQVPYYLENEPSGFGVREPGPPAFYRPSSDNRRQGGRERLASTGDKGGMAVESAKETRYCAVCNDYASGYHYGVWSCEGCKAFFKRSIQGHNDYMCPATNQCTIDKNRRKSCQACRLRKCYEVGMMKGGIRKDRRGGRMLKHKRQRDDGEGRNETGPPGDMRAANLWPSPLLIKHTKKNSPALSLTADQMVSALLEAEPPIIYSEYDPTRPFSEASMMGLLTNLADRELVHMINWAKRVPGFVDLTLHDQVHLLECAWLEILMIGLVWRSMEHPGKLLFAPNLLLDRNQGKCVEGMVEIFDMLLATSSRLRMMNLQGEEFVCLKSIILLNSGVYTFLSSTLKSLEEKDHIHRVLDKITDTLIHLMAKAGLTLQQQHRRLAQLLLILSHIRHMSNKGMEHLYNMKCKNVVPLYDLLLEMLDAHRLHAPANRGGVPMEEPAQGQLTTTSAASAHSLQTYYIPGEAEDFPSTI
Description: Assessment of Estrogen Receptor Antagonism. Commercially obtained rabbit uteri (Pel-Freez Biological, Rogers, Ark.) were used as a source of estrogen receptor. […] Total count tubes received 20 μl of [^3H] estradiol and 180 μl of assay buffer.

[10] = system: growth of the immature mouse uterus; assay: Uterotrophic effect of test agent alone on immature mouse uterus; format: in vivo; details: even at a dose of 10 μg/mouse
Description: Various doses indicated on the abscissa of each test agent were injected i.p. Twenty-two hours later uteri were harvested and weighed.
Immature Mouse Uterine Growth Assay. A bioassay for anti-estrotrophic activity was performed using an immature mouse uterine growth assay (22). Swiss/Webster female mice, 6-8 g in body weight (13-15 days old), were obtained from Taconic Farms (Germantown, N.Y.). […] In a typical experiment, each group received two sequential intraperitoneal injections spaced one hour apart. Test material or vehicle control for that material was contained in the first injectant. Estradiol (E2) or vehicle control for E2 was contained in the second injectant. Twenty-two hours after the second injection, uteri were dissected, trimmed free of mesenteries, and immediately weighed. The uterine weights were normalized to mouse body weights (mg uterine weight/g of body weight) to compensate for differences in body weight among litters of the same age. Experiments employed a minimum of five mice per group, and the mean normalized uterine weight±standard error for each group was calculated. Percent growth inhibition in a test group was calculated from the normalized uterine wet weights as described below.

[11] = system: tamoxifen-stimulated growth of immature mouse uterus; assay: Inhibition of tamoxifen-stimulated growth of immature mouse uterus; format: in vivo; details: Pep i.p. one hour before Tam, uteri weighed 22 hours later
Excerpt: as §2

[12] = Preliminary pharmacokinetic studies in mice; format: in vivo, mouse

## EMTPVNPG [SEQ ID NO: 6: EMTPVNPG, native AFP-derived octapeptide, amino acids 472-479 of alpha-fetoprotein, reference compound]
[1]
  dose of maximal (optimal) inhibition of estrogen-stimulated growth of mouse uterus: ~1 μg/mouse
  effect of 4 M urea treatment on biological activity of stored peptide: regenerated
[2]; excipient: dodecylmaltoside
  effect of excipient on shelf-life of the peptide: significantly prolonged shelf-life
[2]; excipient: mannitol
  effect of excipient on shelf-life of the peptide: significantly prolonged shelf-life
[2]; excipient: sucrose
  effect of excipient on shelf-life of the peptide: did not do so
[2]
  time in storage after which anti-estrotrophic activity was lost (diminished to insignificant levels): four to five

## CC/C(=C(\c1ccccc1)c1ccc(OCCN(C)C)cc1)c1ccccc1 [tamoxifen, reference compound]
[3]
  effect on estrogen-dependent growth (tumor volume) of MCF-7 xenografts: no increase in tumor volume
[4]
  effect on growth (tumor volume) of tamoxifen-resistant MCF-7 subline xenografts: only minimally effective
[5]
  effect on growth (tumor volume) of T47D xenografts: prevented growth
[6]
  effect on growth (tumor volume) of MDA-MB-231 xenografts: did not affect the growth
[7]
  users in whom uterine cancer is caused (side effect): 0.2%

## CSCC[C@@H]1NC(=O)[C@H](CCC(=O)O)NC(=O)[C@H](CCC(N)=O)NC(=O)CNC(=O)[C@@H]2C[C@@H](O)CN2C(=O)[C@H](CC(N)=O)NC(=O)[C@H](C(C)C)NC(=O)[C@@H]2C[C@@H](O)CN2C(=O)[C@H]([C@@H](C)O)NC1=O [cyclo-(SEQ ID NO: 5: EMTOVNOGQ), cyclo-(EMTOVNOGQ)] (cyclo(EMT[Hyp]VN[Hyp]GQ))
[1]; doses higher than 10 μg/mouse
  anti-estrotrophic activity: retained significant anti-estrotrophic activity
[3]
  effect on estrogen-dependent growth (tumor volume) of MCF-7 xenografts: significantly inhibited
[2]
  shelf-life: indefinite shelf-life
[8]
  toxicity to the mice: no evidence of toxicity

## O=C(c1ccc(OCCN2CCCCC2)cc1)c1c(-c2ccc(O)cc2)sc2cc(O)ccc12 [raloxifene, reference compound]
[9]; concentration of 100 nM
  inhibition of estradiol binding to its receptor: completely inhibited

## EMTOVNOG (EMT[Hyp]VN[Hyp]G) [SEQ ID NO: 4: EMTOVNOG, linear octapeptide where O is hydroxyproline (4-hydroxyproline for both prolines)]
[1]
  inhibition of the uterotrophic effect of estradiol (normalized uterine weight, E2+ Pep vs E2): inhibited
  dose of maximal (optimal) inhibition of estrogen-stimulated growth of mouse uterus: 1 μg/mouse
[1]; listed as AFP-derived peptide
  inhibition of the uterotrophic effect of estradiol (normalized uterine weight, E2+ Pep vs E2): significantly different
[3]
  effect on estrogen-dependent growth (tumor volume) of MCF-7 xenografts: inhibited; also recorded: no significant increase in tumor volume
[4]
  effect on growth (tumor volume) of tamoxifen-resistant MCF-7 subline xenografts: completely stopped the growth
[5]
  effect on growth (tumor volume) of T47D xenografts: completely prevented tumor growth
[6]
  effect on growth (tumor volume) of MDA-MB-231 xenografts: no effect
[6]; listed as AFP-derived peptide
  effect on growth (tumor volume) of MDA-MB-231 xenografts: no differences in tumor volumes
[9]
  interference with E2 binding to its receptor: no interference
[9]; listed as linear hydroxyproline-containing octapeptide
  interference with E2 binding to its receptor: did not interfere
[10]
  uterotrophic effect: no uterotrophic effect whatsoever
[11]
  inhibition of tamoxifen's uterotrophic effect (normalized uterine weight, Tam+ Pep vs Tam): significantly inhibited
[11]; listed as AFP-derived peptide
  inhibition of tamoxifen's uterotrophic effect (normalized uterine weight, Tam+ Pep vs Tam): significantly different
[11]; listed as Peptide
  inhibition of tamoxifen's uterotrophic effect (normalized uterine weight, Tam+ Pep vs Tam): inhibited
[2]
  shelf-life: indefinite shelf-life
[12]
  biological half-life: two to three

## cyclo-(EMTPVNPGQ) (head-to-tail cyclization) [head-to-tail cyclized nonapeptide]
[1]; at the optimal dose of the linear peptides (1 μg)
  inhibition of estrogen-stimulated growth of immature mouse uterus: very active
[1]
  effect of 4 M urea treatment on biological activity of stored peptide: restored the optimal biological activity
[2]
  shelf-life: somewhat extended but still rather limited shelf-life
[2]; storage of six months
  biological activity after prolonged storage: significant, albeit not optimal, biological activity

## EMTPVNPGQ [SEQ ID NO: 7: EMTPVNPGQ, linear nonapeptide, glutamine residue added to the C-terminus of the native octapeptide]
[1]
  dose of maximal (optimal) inhibition of estrogen-stimulated growth of mouse uterus: 1 μg/mouse

## QMTPVNPG [SEQ ID NO: 2: QMTPVNPG, linear octapeptide analog of the AFP octapeptide, N-terminal glutamic acid substituted with glutamine]
[1]; higher molecular weight fraction
  biological activity of gel-filtration fraction: biologically inactive
[1]; lower molecular weight fraction
  biological activity of gel-filtration fraction: active
[1]
  dose of maximal (optimal) inhibition of estrogen-stimulated growth of mouse uterus: 1 μg/mouse
  effect of 4 M urea treatment on biological activity of stored peptide: restored its biological activity
[1]; stored in the lyophilized state at −20° C. for over one year
  biological activity of aged peptide: completely biologically inactive
[2]
  time in storage after which anti-estrotrophic activity was lost (diminished to insignificant levels): five and four to five
  shelf-life: stored somewhat better than the native octapeptide
